Assay results: ChEMBL document CHEMBL1142603, “Manzamine B and E and ircinal A related alkaloids from an Indonesian Acanthostrongylophora sponge and their activity against infectious, tropical parasitic, and Alzheimer's diseases” (J Nat Prod, 2006)
Values after ≈ are worked out from the molar mass of the structure shown. Active and inactive are the calls of the source. No cut-off for these calls is given here.

Columns and labels:
[1] = target: T1, Acetylcholinesterase (Bos taurus) (UniProt P23795); assay: Inhibition of bovine AChE
T1 sequence (whole entry): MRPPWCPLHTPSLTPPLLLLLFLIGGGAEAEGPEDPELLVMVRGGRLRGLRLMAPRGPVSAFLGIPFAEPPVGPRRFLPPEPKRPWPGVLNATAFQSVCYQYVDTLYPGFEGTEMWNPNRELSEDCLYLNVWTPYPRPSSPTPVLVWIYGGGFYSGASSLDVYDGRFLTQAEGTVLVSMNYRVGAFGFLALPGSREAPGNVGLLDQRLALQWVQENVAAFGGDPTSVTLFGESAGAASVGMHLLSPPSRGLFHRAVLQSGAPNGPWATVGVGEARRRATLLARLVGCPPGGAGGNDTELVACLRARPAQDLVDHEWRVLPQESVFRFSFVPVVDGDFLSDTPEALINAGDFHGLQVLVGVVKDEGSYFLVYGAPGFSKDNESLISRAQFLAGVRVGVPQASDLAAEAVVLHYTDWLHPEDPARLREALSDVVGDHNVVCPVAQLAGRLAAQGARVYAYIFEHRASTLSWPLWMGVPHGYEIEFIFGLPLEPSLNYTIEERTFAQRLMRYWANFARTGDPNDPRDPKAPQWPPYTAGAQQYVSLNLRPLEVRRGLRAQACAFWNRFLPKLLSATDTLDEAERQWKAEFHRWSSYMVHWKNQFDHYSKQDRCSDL

[2] = target: Beta-secretase 1 (Homo sapiens) (UniProt P56817); assay: Inhibition of human recombinant BACE1 by FRET-based assay
[3] = system: Vero; assay: Cytotoxicity against african green monkey Vero cells at 4.76 ug/mL by neutral red assay; assay type: cell-based; settings: chlorocebus sabaeus
[4] = system: Staphylococcus aureus; assay: Antibacterial activity against Staphylococcus aureus; assay type: functional, organism-based
[5] = system: Staphylococcus aureus; assay: Antibacterial activity against methicillin-resistant Staphylococcus aureus; assay type: functional, organism-based
[6] = system: Mycobacterium tuberculosis; assay: Antituberculosis activity against Mycobacterium tuberculosis H37Rv after 24 hrs by alamar blue assay; assay type: functional
[7] = target: Glycogen synthase kinase-3 beta (Homo sapiens) (UniProt P49841); assay: Inhibition of human recombinant GSK3-beta assessed as incorporation of [33P]gammaATP into G2S peptide at 25 uM
[8] = system: Plasmodium falciparum; assay: Antimalarial activity after 72 hrs against chloroquine-resistant Plasmodium falciparum W2 in erythrocytes by LDH reporter assay; assay type: functional, organism-based; settings: W2, 72 h
[9] = system: Human immunodeficiency virus 1; assay: Antiviral activity against HIV1 3B assessed as reverse transcriptase activity by enzyme immunoassay; assay type: functional, organism-based; settings: Human immunodeficiency virus 1, 3B
[10] = system: Cryptococcus neoformans; assay: Antifungal activity against Cryptococcus neoformans; assay type: functional, organism-based
[11] = system: Mycobacterium intracellulare; assay: Antibacterial activity against Mycobacterium intracellular by alamar blue assay; assay type: functional, organism-based
[12] = system: Plasmodium falciparum; assay: Antimalarial activity after 72 hrs against chloroquine-sensitive Plasmodium falciparum D6 in erythrocytes by LDH reporter assay; assay type: functional, organism-based; settings: D6, 72 h
[13] = system: Leishmania donovani; assay: Antileishmanial activity against Leishmania donovani after 72 hrs by alamar blue assay; assay type: functional, organism-based
[14] = system: Vero; assay: Cytotoxicity against african green monkey Vero cells by neutral red assay; assay type: cell-based; settings: chlorocebus sabaeus
[15] = system: Plasmodium falciparum; assay: Antimalarial activity after 72 hrs against chloroquine-resistant Plasmodium falciparum W2 in erythrocytes at […] by LDH reporter assay; assay type: functional, organism-based
[16] = system: Plasmodium falciparum; assay: Antimalarial activity after 72 hrs against chloroquine-sensitive Plasmodium falciparum D6 in erythrocytes at […] by LDH reporter assay; assay type: functional, organism-based
[17] = system: Leishmania donovani; assay: Antileishmanial activity against Leishmania donovani at 40 ug/mL after 72 hrs by alamar blue assay; assay type: functional, organism-based

Sequence of Beta-secretase 1 (Homo sapiens) (P56817 whole entry): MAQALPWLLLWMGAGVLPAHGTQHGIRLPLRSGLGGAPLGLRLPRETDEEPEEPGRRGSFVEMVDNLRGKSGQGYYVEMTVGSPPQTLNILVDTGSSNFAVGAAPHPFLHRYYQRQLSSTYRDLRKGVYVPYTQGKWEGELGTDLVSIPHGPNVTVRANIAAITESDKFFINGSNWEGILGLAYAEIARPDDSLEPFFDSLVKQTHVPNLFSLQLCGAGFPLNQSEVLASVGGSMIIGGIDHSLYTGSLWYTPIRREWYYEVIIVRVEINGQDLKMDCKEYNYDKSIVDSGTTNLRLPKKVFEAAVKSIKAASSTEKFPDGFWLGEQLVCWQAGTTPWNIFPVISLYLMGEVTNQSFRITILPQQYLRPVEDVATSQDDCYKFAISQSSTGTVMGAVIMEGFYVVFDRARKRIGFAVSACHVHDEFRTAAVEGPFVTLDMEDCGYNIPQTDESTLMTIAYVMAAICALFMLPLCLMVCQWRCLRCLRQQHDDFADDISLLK
Sequence of Glycogen synthase kinase-3 beta (Homo sapiens) (P49841 whole entry, looked up): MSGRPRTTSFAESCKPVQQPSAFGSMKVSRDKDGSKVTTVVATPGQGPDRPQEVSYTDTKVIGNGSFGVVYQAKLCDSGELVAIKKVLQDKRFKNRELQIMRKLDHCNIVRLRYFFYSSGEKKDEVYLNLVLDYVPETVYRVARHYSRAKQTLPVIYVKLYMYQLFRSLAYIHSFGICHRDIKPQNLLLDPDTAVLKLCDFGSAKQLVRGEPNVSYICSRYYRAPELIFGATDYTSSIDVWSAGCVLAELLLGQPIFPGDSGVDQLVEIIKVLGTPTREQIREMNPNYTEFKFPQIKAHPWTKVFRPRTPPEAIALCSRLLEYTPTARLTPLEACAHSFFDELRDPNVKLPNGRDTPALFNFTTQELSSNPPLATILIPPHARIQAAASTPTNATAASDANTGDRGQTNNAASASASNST

Row | Compound | Activity [1] | Activity [2] | Activity [3] | Activity [4] | Activity [5] | MIC [6] | IC50 [8] | IC50 [12] | IC50 [13] | IC90 [13] | Activity [10] | also measured
1 | C1=C\CC[C@]23CN4CCCC/C=C\CC[C@@]5(O[C@H]5[C@@H](c5nccc6c5[nH]c5ccccc56)[C@@H]2CC4)[C@@H]3NCCCC/1 | inactive | inactive |  |  |  |  |  |  |  |  |  | 
2 | O=C1CCCN2[C@@H](CC1)C[C@]13CN4CCCC/C=C\CC[C@](O)(C=C(c5nccc6c5[nH]c5c(O)cccc56)C1CC4)[C@H]23 (stereo partly drawn) [MANZAMINE F] | inactive | inactive | Non-toxic | inactive | inactive | 2.6 µg/mL (≈ 4.48 µM) | 1.7 µg/mL (≈ 2.93 µM) | 0.78 µg/mL (≈ 1.34 µM) | 4.2 µg/mL (≈ 7.23 µM) | 7 µg/mL (≈ 12.1 µM) |  | inhibition [7]: 29.9%; IC50 [9]: 7.3 µg/mL (≈ 12.6 µM); IC50 [10]: 6.5 µg/mL (≈ 11.2 µM); IC50 [11]: 6.25 µg/mL (≈ 10.8 µM)
3 | Oc1cccc2c1[nH]c1c([C@H]3[C@@H]4CCN5CCCC/C=C\CC[C@@]6(O[C@@H]36)[C@@H]3NCCCC/C=C\CC[C@@]34C5)nccc12 | inactive | inactive |  |  |  |  |  |  |  |  |  | 
4 | O=CC1=C[C@@]2(O)CC/C=C\CCCCN3CC[C@@H]1[C@]1(C[C@@H]4/C=C\CCCCN4[C@H]12)C3 |  |  |  |  |  |  |  |  |  |  |  | inhibition [7]: 0%
5 | O=CC1=C[C@]23CC/C=C\CCCCN4CC[C@@H]1[C@]1(C[C@@H]5/C=C\CCC[C@@H](O2)N5[C@H]13)C4 | inactive | inactive |  |  |  |  |  |  |  |  |  | 
6 | Cc1cn([C@H]2C[C@H](N=[N+]=[N-])[C@@H](CO)O2)c(=O)[nH]c1=O [ZIDOVUDINE] |  |  |  |  |  |  |  |  |  |  |  | IC50 [9]: 0.004 µg/mL (≈ 0.015 µM)
7 | O=C1CCCN2[C@@H](CC1)C[C@]13CN4CCCC/C=C\CC[C@](O)(C=C(c5nccc6c5[nH]c5ccc(O)cc56)[C@@H]1CC4)[C@H]23 | inactive | inactive | Non-toxic |  |  | 0.4 µg/mL (≈ 0.689 µM) | 0.87 µg/mL (≈ 1.5 µM) | 0.78 µg/mL (≈ 1.34 µM) | 2.5 µg/mL (≈ 4.3 µM) | 4.3 µg/mL (≈ 7.4 µM) |  | IC50 [14]: 4.3 µg/mL (≈ 7.4 µM); IC50 [10]: 5.5 µg/mL (≈ 9.47 µM); IC50 [11]: 3.5 µg/mL (≈ 6.03 µM)
8 | O=C1CCCN2[C@@H](CC1)C[C@]13CN4CCCC/C=C\CC[C@](O)(C=C(c5nccc6c5[nH]c5ccccc56)C1CC4)[C@H]23 (stereo partly drawn) [MANZAMINE E] | inactive | inactive | Non-toxic | inactive | inactive | 3.8 µg/mL (≈ 6.73 µM) | 4.76 µg/mL (≈ 8.43 µM) | 3.4 µg/mL (≈ 6.02 µM) | 3.8 µg/mL (≈ 6.73 µM) | 6.8 µg/mL (≈ 12 µM) | inactive | inhibition [7]: 53.6%; IC50 [9]: 13.1 µg/mL (≈ 23.2 µM); IC50 [11]: 12.5 µg/mL (≈ 22.1 µM)
9 | Oc1cccc2c3cc[nH]c(C4=C[C@]56CC/C=C\CCCCN7CC[C@@H]4[C@]4(C[C@@H]8/C=C\CCC[C@@H](O5)N8[C@H]46)C7)c-3nc12 [12,28-OXA-8-HYDROXY-MANZAMINE A] | inactive | inactive | Non-toxic | inactive | inactive |  |  |  |  |  | inactive | Activity [15]: inactive; Activity [11]: inactive; Activity [16]: inactive
10 | O=C1CCCN2[C@H]3[C@]45CN6CCCC/C=C\CC[C@]3(C=C(c3nccc7c3[nH]c3c(O)cccc37)[C@H]4CC6)O[C@]2(CC1)C5 | inactive | inactive | Non-toxic | inactive | inactive | 12.5 µg/mL (≈ 21.6 µM) | 1.1 µg/mL (≈ 1.9 µM) | 0.84 µg/mL (≈ 1.45 µM) |  |  | inactive | Activity [17]: inactive; IC50 [9]: 14.9 µg/mL (≈ 25.7 µM); Activity [11]: inactive
11 | O=C(O)c1cn(C2CC2)c2cc(N3CCNCC3)c(F)cc2c1=O [CIPROFLOXACIN] |  |  |  |  |  |  |  |  |  |  |  | IC50 [11]: 0.25 µg/mL (≈ 0.754 µM)
12 | C1=C(c2[nH]ccc3c4ccccc4nc2-3)[C@@H]2CCN3CCCC/C=C\CC[C@]14O[C@@H]1CCC/C=C\[C@H]5C[C@@]2(C3)[C@H]4N51 [12,28-OXAMANZAMINE A] | inactive | inactive | Non-toxic | inactive | inactive |  |  |  | 7.8 µg/mL (≈ 14.3 µM) | 50 µg/mL (≈ 91.4 µM) | inactive | IC50 [9]: 22.2 µg/mL (≈ 40.6 µM); Activity [15]: inactive; Activity [11]: inactive; Activity [16]: inactive
13 | CO[C@H]1/C=C/O[C@@]2(C)Oc3c(C)c(O)c4c(O)c(c(/C=N/N5CCN(C)CC5)c(O)c4c3C2=O)NC(=O)/C(C)=C\C=C\[C@H](C)[C@H](O)[C@@H](C)[C@@H](O)[C@@H](C)[C@H](OC(C)=O)[C@@H]1C [RIFAMPIN] |  |  |  |  |  | 0.5 µg/mL (≈ 0.608 µM) |  |  |  |  |  | 
14 | O=C1CCCN2[C@@H]3[C@@]45CN6CCCC/C=C\CC[C@@]3(C=C(c3nccc7c3[nH]c3ccc(O)cc37)[C@@H]4CC6)O[C@]2(CC1)C5 | inactive | inactive | Non-toxic | inactive | inactive |  |  |  |  |  | inactive | Activity [17]: inactive; Activity [15]: inactive; Activity [11]: inactive; Activity [16]: inactive
15 | C[C@@H]1CC[C@H]2[C@@H](C)C(=O)O[C@@H]3O[C@@]4(C)CC[C@@H]1[C@]32OO4 [ARTEMISININ] |  |  |  |  |  |  | 0.0063 µg/mL (≈ 0.0223 µM) | 0.01 µg/mL (≈ 0.0354 µM) |  |  |  | 
16 | C[C@@H]1[C@H](O)[C@@H](C)/C=C/C=C/C=C/C=C/C=C/C=C/C=C/[C@H](O[C@@H]2O[C@H](C)[C@@H](O)[C@H](N)[C@@H]2O)C[C@@H]2O[C@](O)(C[C@@H](O)C[C@@H](O)[C@H](O)CC[C@@H](O)C[C@@H](O)CC(=O)O[C@H]1C)C[C@H](O)[C@H]2C(=O)O [AMPHOTERICIN B] |  |  |  |  |  |  |  |  | 0.06 µg/mL (≈ 0.0649 µM) | 0.15 µg/mL (≈ 0.162 µM) |  | IC50 [10]: 0.15 µg/mL (≈ 0.162 µM)
17 | O=C1CC[C@H]2C[C@]34CN5CCCC/C=C\CC[C@@]6(C=C(c7nccc8c7[nH]c7ccccc78)[C@@H]3CC5)O[C@H](CC1)N2[C@H]46 | inactive | inactive | Non-toxic | inactive | inactive |  |  |  | 18 µg/mL (≈ 32 µM) | 40 µg/mL (≈ 71.1 µM) | inactive | Activity [15]: inactive; Activity [11]: inactive; Activity [16]: inactive
18 | N=C(N)c1ccc(OCCCCCOc2ccc(C(=N)N)cc2)cc1 [PENTAMIDINE] |  |  |  |  |  |  |  |  | 2.1 µg/mL (≈ 6.17 µM) | 10 µg/mL (≈ 29.4 µM) |  | 
19 | Oc1ccc2[nH]c3c(C4=C[C@@]5(O)CC/C=C\CCCCN6CC[C@@H]4[C@]4(C[C@@H]7/C=C\CCCCN7[C@H]45)C6)nccc3c2c1 [MANZAMINE Y] | inactive | inactive |  |  |  | 5.2 µg/mL (≈ 9.21 µM) | 0.85 µg/mL (≈ 1.51 µM) | 0.42 µg/mL (≈ 0.744 µM) | 1.6 µg/mL (≈ 2.83 µM) | 8 µg/mL (≈ 14.2 µM) | inactive | IC50 [14]: 3.9 µg/mL (≈ 6.91 µM); IC50 [4]: 15 µg/mL (≈ 26.6 µM); IC50 [5]: 15 µg/mL (≈ 26.6 µM); inhibition [7]: 74.3%; IC50 [11]: 3.5 µg/mL (≈ 6.2 µM)
